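Cells were grown in 96-well plates and exposed to each compound for 48 hours at five concentrations; endpoints were interpolated linearly between bracketing concentrations, or set to the highest concentration if not reached. At the GI50, growth is halved.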 Activity calls are given as the source filed them. No stated cut-off is given here; in the data, active = GI50 up to about 1.1 µM and inactive = higher.
Columns and labels:
Assay in all cases: NCI-60 cell line screen, 48 h
ACHN = tested on: ACHN
UACC-62 = tested on: UACC-62
A549 = tested on: A549
DU-145 = tested on: DU-145
OVCAR-3 = tested on: OVCAR-3
HCT-116 = tested on: HCT-116
OVCAR-5 = tested on: OVCAR-5
HT-29 = tested on: HT-29
CAKI-1 = tested on: CAKI-1
786-0 = tested on: 786-0
OVCAR-4 = tested on: OVCAR-4
Malme-3M = tested on: Malme-3M
SF-295 = tested on: SF-295
RXF 393 = tested on: RXF 393
MDA-MB-435 = tested on: MDA-MB-435
KM12 = tested on: KM12
T47D = tested on: T47D
SK-MEL-5 = tested on: SK-MEL-5
SNB-75 = tested on: SNB-75
SF-268 = tested on: SF-268

Measured: GI50

COc1ccc(-c2c(CN3CCOCC3)sc3nc4ccccc4n23)cc1
inactive: ACHN 36.6 µM | UACC-62 16.7 µM | A549 22.2 µM | DU-145 28.2 µM | OVCAR-3 9.86 µM | HCT-116 9.84 µM | OVCAR-5 32.3 µM | HT-29 8.41 µM | CAKI-1 28.5 µM | 786-0 17.2 µM | OVCAR-4 47.6 µM | Malme-3M 3.9 µM | SF-295 9.08 µM | RXF 393 8.55 µM | MDA-MB-435 2.94 µM | KM12 9.48 µM | T47D 18 µM | SK-MEL-5 6.43 µM | SNB-75 14.3 µM | SF-268 18.5 µM

CC(C)NC(=O)OCc1c(COC(=O)NC(C)C)c(-c2cc[n+](COC(=O)C(C)C)cc2)n2c1CCC2
inactive: ACHN 12.2 µM | UACC-62 48.9 µM | A549 > 100 µM | DU-145 > 100 µM | OVCAR-3 > 100 µM | HCT-116 > 100 µM | OVCAR-5 > 100 µM | HT-29 > 100 µM | CAKI-1 20 µM | 786-0 28 µM | OVCAR-4 > 100 µM | Malme-3M > 100 µM | SF-295 > 83.2 µM | RXF 393 21 µM | MDA-MB-435 > 100 µM | KM12 > 100 µM | T47D > 94.8 µM | SK-MEL-5 > 100 µM | SNB-75 > 53.5 µM | SF-268 > 74.8 µM

OC(/C(=N/c1ccccc1)c1ccccc1)c1ccccc1 (stereo not given)
inactive: ACHN 14.4 µM | UACC-62 3.57 µM | A549 11.3 µM | DU-145 5.35 µM | OVCAR-3 2.66 µM | HCT-116 5.37 µM | OVCAR-5 23.1 µM | HT-29 5.22 µM | CAKI-1 11.9 µM | 786-0 10.8 µM | OVCAR-4 10.2 µM | Malme-3M 2.22 µM | SF-295 9.71 µM | RXF 393 12.3 µM | MDA-MB-435 2.75 µM | KM12 2.72 µM | T47D 5.62 µM | SK-MEL-5 2.07 µM | SNB-75 5.6 µM | SF-268 4.99 µM

CC(=O)O[C@H]1CC[C@@]2(C)C(=CC[C@@H]3[C@@H]2CC[C@]2(C)C(=N/O)/C(=C\c4ccccc4)C[C@@H]32)C1
inactive: ACHN 23.6 µM | UACC-62 5.94 µM | A549 14.4 µM | DU-145 23.4 µM | OVCAR-3 11.3 µM | HCT-116 6.12 µM | OVCAR-5 17.1 µM | HT-29 3.99 µM | CAKI-1 24.7 µM | 786-0 13.9 µM | OVCAR-4 30.1 µM | Malme-3M 4.14 µM | SF-295 14.8 µM | RXF 393 9.48 µM | MDA-MB-435 3.89 µM | KM12 3.2 µM | T47D 7.53 µM | SK-MEL-5 2.08 µM | SNB-75 33.6 µM | SF-268 24.2 µM

Cc1nnc(N2C(=O)C(=Cc3ccc(Cl)cc3)N=C2c2ccc(Cl)cc2)nc1/C=C\c1ccc(N(C)C)cc1
inactive: ACHN > 100 µM | UACC-62 > 100 µM | A549 > 100 µM | DU-145 > 100 µM | OVCAR-3 > 100 µM | HCT-116 > 100 µM | OVCAR-5 > 100 µM | HT-29 > 100 µM | CAKI-1 > 100 µM | 786-0 > 100 µM | OVCAR-4 > 100 µM | Malme-3M > 100 µM | SF-295 > 100 µM | RXF 393 > 100 µM | MDA-MB-435 > 100 µM | KM12 > 100 µM | T47D > 100 µM | SK-MEL-5 > 100 µM | SNB-75 > 100 µM | SF-268 > 100 µM

From ChEMBL document CHEMBL1201862, “PubChem BioAssay data set” (2004)
